These results are taken from PubChem BioAssay (NCI).

Some test systems named below: HOP-18 NSCLC; RXF-631 renal; XF 498 CNS; M19-MEL melanoma; DLD-1 colon; LXFL 529 NSCLC; KM20L2 colon; SNB-78 CNS; MDA-N.
Holding throughout (experiment): inhibition of tumour cell growth, NCI panel, 48 h

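Where inhibition never reached the appropriate level, the endpoint shown equals the highest concentration tested. Otherwise, values were interpolated linearly from a five-concentration, 48-hour dose response in 96-well plates. GI50 = concentration required for 50% inhibition of growth. TGI marks complete inhibition of growth.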 A value given as a limit tells only on which side of the number the result lay.

In the case of `COc1ccc(C23C(=O)c4ccccc4N2O[C@H]2C(=O)N(c4ccccc4)C(=O)[C@H]23)cc1` (some centres undefined), the TGI in the experiment with HOP-18 NSCLC, in the experiment on RXF-631 renal, in the experiment on XF 498 CNS, with M19-MEL melanoma, in the experiment on DLD-1 colon and in the experiment with LXFL 529 NSCLC was over 100 µM throughout. In addition, the TGI with KM20L2 colon and in the experiment with SNB-78 CNS was over 100 µM in each case.
Regarding `CCCCCCCCCCCc1nnc(N)o1`, the TGI in the experiment on RXF-631 renal, with XF 498 CNS, with M19-MEL melanoma, in the experiment with DLD-1 colon, in the experiment on LXFL 529 NSCLC and in the experiment with KM20L2 colon was over 100 µM each time. This molecule registered a TGI in the experiment with SNB-78 CNS of over 100 µM.
For `C=C(C)C(O)CCC1(C)C=Cc2c(c(C)cc3c2[nH]c2ccccc23)O1` (centres undefined), the TGI is 17.3 µM in the experiment with MDA-N; 25 µM in the experiment on XF 498 CNS; 25 µM in the experiment with M19-MEL melanoma; 18.8 µM in the experiment with DLD-1 colon; 25 µM in the experiment with LXFL 529 NSCLC; 7.57 µM with KM20L2 colon. Moreover, the TGI in the experiment on SNB-78 CNS was 25 µM.
For the molecule `COc1cc(Br)c(C=Nc2cccc3cc(OC)c(OC)cc23)cc1OC`, the TGI with HOP-18 NSCLC, in the experiment on RXF-631 renal, with M19-MEL melanoma, in the experiment on DLD-1 colon, in the experiment on LXFL 529 NSCLC and in the experiment on KM20L2 colon was over 100 µM throughout. Moreover, the TGI with SNB-78 CNS is over 100 µM.
Consider `O=C(NCCCCNc1cccccc1=O)OCc1ccccc1`, for which the TGI in the experiment on HOP-18 NSCLC, with RXF-631 renal, in the experiment on M19-MEL melanoma, in the experiment with DLD-1 colon, in the experiment on LXFL 529 NSCLC and in the experiment on KM20L2 colon was over 100 µM each time. Besides, in the experiment with SNB-78 CNS, the TGI is over 100 µM.
For `C=C(C)[C@@H]1CC[C@]2(C)CC[C@]3(C)[C@H](CC[C@@H]4[C@@]5(C)CC[C@H](O)C(C)(C)[C@@H]5CC[C@]43C)[C@@H]12`, the TGI in the experiment with MDA-N, with XF 498 CNS, in the experiment with M19-MEL melanoma, in the experiment with DLD-1 colon, in the experiment on LXFL 529 NSCLC and in the experiment with KM20L2 colon was over 100 µM each time.
On to `CC(C)Cn1cnc2c(SCc3ccc(Cl)cc3Cl)nc(N)nc21`, for which the TGI in the experiment with MDA-N is over 100 µM.
In the experiment with MDA-N, `CNC(=O)Nc1nc2ccc([N+](=O)[O-])cc2[nH]1` displayed a TGI of over 100 µM.
`O=C(O)CCC(=O)N1c2ccccc2CC1c1c[nH]c2ccccc12` (centres undefined): the TGI in the experiment on HOP-18 NSCLC, in the experiment on XF 498 CNS, in the experiment on M19-MEL melanoma, with LXFL 529 NSCLC, in the experiment on KM20L2 colon and in the experiment with SNB-78 CNS was over 100 µM each time.
Regarding `COC1=C(N)C(=O)c2nc(C)ccc2C1=O`, the TGI in the experiment on HOP-18 NSCLC was determined as 3.53 µM; with XF 498 CNS, 2.84 µM; in the experiment on M19-MEL melanoma, 0.715 µM; in the experiment on DLD-1 colon, 5.31 µM; in the experiment on LXFL 529 NSCLC, 6.21 µM; in the experiment on KM20L2 colon it was 5.07 µM. The same molecule registered a TGI with SNB-78 CNS of 14.1 µM.
Regarding `Cc1nnn[n-]1.N.N.N.N.N.[Cl-].[Co+3]`, the GI50 in the experiment with HOP-18 NSCLC, with DLD-1 colon, with LXFL 529 NSCLC and in the experiment on KM20L2 colon was over 100 µM in each case. Besides, the TGI in the experiment with HOP-18 NSCLC, with DLD-1 colon, in the experiment on LXFL 529 NSCLC and with KM20L2 colon was over 100 µM each time.
In the case of `CC1(C)O[C@H]2[C@H](O)C[C@](O)(CO)C[C@H]2O1`, the TGI in the experiment with RXF-631 renal, in the experiment on M19-MEL melanoma, in the experiment with DLD-1 colon, in the experiment on LXFL 529 NSCLC, in the experiment with KM20L2 colon and with SNB-78 CNS was over 100 µM throughout.
Consider `CCOC(=O)c1nn2c(nc1=O)sc1ccc3ccccc3c12`, for which the TGI with HOP-18 NSCLC, in the experiment on M19-MEL melanoma, in the experiment on DLD-1 colon, in the experiment on LXFL 529 NSCLC, in the experiment on KM20L2 colon and in the experiment with SNB-78 CNS was over 100 µM throughout.
Take `CN(/N=C/c1cccc2cccnc12)c1ccc([N+](=O)[O-])cc1[N+](=O)[O-]`: the TGI in the experiment on HOP-18 NSCLC is over 100 µM; in the experiment on RXF-631 renal, over 100 µM; with MDA-N it was over 100 µM; in the experiment on XF 498 CNS, 19.2 µM; in the experiment with M19-MEL melanoma, over 100 µM; with DLD-1 colon, over 100 µM. For the same molecule, the TGI with LXFL 529 NSCLC was over 100 µM; in the experiment with KM20L2 colon, over 100 µM; in the experiment with SNB-78 CNS, 61.6 µM.
For the molecule `CCN(CC)c1c(C(=O)/C=C/c2ccc(Cl)cc2)c(-c2ccccc2)nn(C)c1=O`, the TGI in the experiment on HOP-18 NSCLC came out at 4.83 µM; in the experiment with RXF-631 renal, 3.99 µM; in the experiment on M19-MEL melanoma it was 3.14 µM; with DLD-1 colon it was 3.99 µM; in the experiment with LXFL 529 NSCLC it was 3.42 µM; with KM20L2 colon it was 7.84 µM. This molecule showed a TGI in the experiment on SNB-78 CNS of 5.93 µM.
For `O=[N+]([O-])c1ccc(C[P+](c2ccccc2)(c2ccccc2)c2ccccc2)cc1`, the TGI in the experiment on HOP-18 NSCLC is over 100 µM; in the experiment on M19-MEL melanoma, 81.2 µM; in the experiment on DLD-1 colon, over 100 µM; with LXFL 529 NSCLC it was over 100 µM; in the experiment with KM20L2 colon it was over 100 µM.
`CN(O)C(=O)SCC(NC(=O)CCC(N)C(=O)O)C(=O)NCC(=O)O` (centres undefined): the GI50 in the experiment on HOP-18 NSCLC, in the experiment on M19-MEL melanoma, with DLD-1 colon, with LXFL 529 NSCLC and with KM20L2 colon was over 2000 µM throughout. Further, the TGI in the experiment with HOP-18 NSCLC was over 2000 µM; in the experiment with M19-MEL melanoma, over 2000 µM; in the experiment with DLD-1 colon it was over 2000 µM; in the experiment with LXFL 529 NSCLC, over 2000 µM; in the experiment on KM20L2 colon, over 2000 µM; in the experiment on SNB-78 CNS, over 2 µM.
As to `O=C1N(C2CCCCC2)CC12CCCCC2`, the TGI with HOP-18 NSCLC, in the experiment on RXF-631 renal, with XF 498 CNS, in the experiment on M19-MEL melanoma, in the experiment on KM20L2 colon and in the experiment on SNB-78 CNS was over 100 µM throughout.
Consider `O=C(Nc1ccc([As](=O)(O)O)cc1)Nc1cccc(Cl)c1Cl`, for which the TGI in the experiment on MDA-N is over 100 µM.
As to `O=C(O)CCCSC(=O)Nc1ccc(N=Nc2ccccc2)cc1`, the TGI with LXFL 529 NSCLC, in the experiment with KM20L2 colon and in the experiment with SNB-78 CNS was over 100 µM each time.
